Consider one molecule from patent US8518953B2, “Aminopyrimidines useful as inhibitors of protein kinases” (Vertex Pharmaceuticals Incorporated, priority 2007, dated 2013).

pIC50: −log10 of the molar value. Some results are limits rather than exact numbers.

Experiment [1] has as its system β-catenin dependent TCF/LEF transcriptional activity. Put plainly: β-Catenin Stabilization Protocol (β-lactamase reporter assay in Jurkat cells). In kind it is cell-based. As to conditions: Homo sapiens, 460/530 ratio, read-out: Beta Catenin IC50. The source says: GSK-3 phosphorylation of β-catenin targets it to the proteosome for degradation. Inhibition of GSK-3 results in accumulation of β-catenin in the cytosol of cells which through interaction with the transcription factor TCF/LEF translocates to the nucleus and drives the transcription of Wnt-dependent genes. The assay is designed to determine the level of β-catenin dependent TCF/LEF transcriptional activity in a quantitative manner through the use of a β-lactamase reporter assay in Jurkat cells dosed with a compound.
Jurkat β-catenin cells are starved overnight in assay media (1% FBS, 1× Penstrep, RPMI) in the flask. The next day Jurkat β-catenin cells are seeded in 96 well flat bottom plates at a density of 50,000 cells/well in assay media in a volume of 100 ul. The compound is added to the well at a final DMSO concentration of 0.75% and incubated at 37° C. o/n. The next day, 20 uL of 6×CCF4 dye is added to the wells and incubated at room temperature for 1-2 hours. Plates are read on the Cytofluor 4000 series multiwell plate reader and the 460/530 ratio is determined.

In the next experiment the test system is GSK-3α/β pTYR. Put plainly: pTYR Biomarker Analysis in brains of MCAO rats (Western blot). It counts as in vivo, rat. As to conditions: all doses, at the termination of the study, compared to vehicle treated rats. The method, then: RIPA consists of 0.5 ml 10% SDS, 2.5 ml 10% Sodium Deoxycholate, 0.5 ml NP40, and 46.5 ml PBS. […] 10 mL of lysis buffer (modified RIPA) is added to tissue (1 ml/½ brain) and homogenized on ice. The lysates are then centrifuged at 10000 rpm for 10 min at 4° C. The supernatant is then transferred to a new tube and kept on ice. The supernatant samples are respun at 10000 rpm for 10 min at 4° C. The supernatant is then transferred to a new tube and kept on ice. An aliquot of the supernatant is taken and the protein is measured with the Pierce BCA protein assay kit (cat#23225), using BSA standard curve (do a 1:25 dilution in PBS). The remaining supernatant is diluted to 1 ug/ul with Biorad Laemmli Sample buffer (cat#161-0737) with β-mercaptoethanol added. The samples are boiled for 5 min at 95° C. and spun in a microfuge for 1 minute. The samples are snap frozen on dry ice and stored at −20° C. 10 ug of protein/lane (10 uL) is then loaded and the Western blot is run according to Example 3. Inhibition of GSK-3α/β pTYR is determined by comparing the density of the protein band in samples obtained from animals treated with compound to samples from vehicle treated animals. […] Lysates were analyzed by Western blot (see Example 3) and probed for GSK-3α/β pTYR levels.

The target of the next experiment is T1, GSK3α TYR 279 (Homo sapiens, UniProt P49840).
T1 construct: western blotting of Jurkat cells dosed with the compounds; endogenous in cells; host or cells: Jurkat cells
The experiment is described as follows: GSK-3α p-TYR Inhibition Assay (western blotting of Jurkat cells). It counts as cell-based. As to conditions: western blot, read-out: GSK3a pTYR 279: IC50. The method, then: Compounds are screened for their ability to inhibit the phosphorylation of tyrosine (TYR) residues through the use of western blotting of Jurkat cells dosed with the compounds. The phosphorylation of the specific TYR residues tested are GSK3α TYR 279 and GSK3β TYR 216.
Jurkat cells are seeded at a density of 2×10^5 cells/well in a 12 well dish in starvation media (RPMI+1% FBS+P/S). Following starvation for 16 hours, the compound is dosed into each well at a final DMSO concentration of 0.3% and cells are incubated o/n at 37° C. 5% CO2. The next day, cells are spun down at 1500 rpm, washed with PBS, and lysed in 100 uL Laemli sample buffer with β-mercaptoethanol.
15 microliters (uL) of cell lysates are loaded onto a 10% tris-glycine gel and run at 120 v for 2 hours or until dye front runs off of the gel. The protein is then transferred onto a PVDF membrane at 100 v for 60 min. PBST (PBS containing 0.1% Tween 20, such as 1 ml Tween per 1 L of PBS) is then made up and used for all washes and antibody incubations. The blot is blocked in 5% nonfat milk PBST for one hour.
The primary antibody (GSK-3α/β pTYR 279/216 at 1:1000 dilution Upstate cat#05-413) is then added in […] PBST overnight at 4° C. with gentle rocking. The blot is then washed in PBST for 5 min. This is then repeated 4 times. […]

T1 sequence (P49840 whole entry): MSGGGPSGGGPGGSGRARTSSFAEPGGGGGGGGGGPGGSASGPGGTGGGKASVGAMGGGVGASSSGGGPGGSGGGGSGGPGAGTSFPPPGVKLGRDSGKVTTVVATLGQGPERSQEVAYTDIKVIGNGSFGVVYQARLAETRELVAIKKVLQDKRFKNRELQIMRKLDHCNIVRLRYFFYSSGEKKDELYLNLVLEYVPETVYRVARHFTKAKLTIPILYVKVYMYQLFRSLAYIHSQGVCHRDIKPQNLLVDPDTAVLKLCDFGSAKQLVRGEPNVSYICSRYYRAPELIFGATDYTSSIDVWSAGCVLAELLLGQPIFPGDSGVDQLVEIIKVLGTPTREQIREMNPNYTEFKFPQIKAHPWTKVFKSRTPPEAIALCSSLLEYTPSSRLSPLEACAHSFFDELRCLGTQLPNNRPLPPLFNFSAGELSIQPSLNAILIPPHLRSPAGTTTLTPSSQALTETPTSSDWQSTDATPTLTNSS

For `Cc1nc(-c2ccccc2Cl)nc(Nc2n[nH]c3ncc(F)cc23)c1C` [Compound I-1, N-(2-(2-chlorophenyl)-5,6-dimethylpyrimidin-4-yl)-5-fluoro-1H-pyrazolo[3,4-b]pyridin-3-amine], the pIC50 was 6.64 in experiment [1] and > 9.30 at GSK3α TYR 279. Besides, the “GSK-3α/β pTYR signal in the brain” value in the experiment on GSK-3α/β pTYR is given as “significant reduction in pTYR signal”.
